According to patent US20250314665A1, “BIOMARKERS FOR CEREBRAL METABOLIC DISORDERS, AND DIAGNOSTIC METHODS USING THEREOF” (COMMISSARIAT A L'ENERGIE ATOMIQUE ET AUX ENERGIES …, priority 2022, published 2025):
“Also recorded” adds a separate entry of the source.

How the values were obtained:
Assay type in all cases: in vivo, mouse
[1] = test system: CrT KO mice; experiment: Morris water maze (MWM) in DCE-treated CrT KO mice; conditions: DCE intranasal 4 mg/g once a day; hidden platform, 7 days
Experimental: (§1) Treatment continued during behavioral testing, which took two weeks, for a total of 30 days of treatment. The testing order for behavioral assessment performed in the same mice consisted of: object recognition test (ORT) 24 h (3 days), Y maze (1 day), Morris water maze (MWM) with hidden platform (7 days).
Mice were trained for 4 trials per day and for a total of 7 days in a circular water tank (diameter, 120 cm; height, 40 cm), filled with water (23° C.) rendered opaque by the addition of a non-toxic white paint to a depth of 25 cm. […] Mice were allowed up to 60 s to reach the escape platform, and their swimming paths were automatically recorded by the Noldus Ethovision system. On the last trial of the last training day, mice received a probe trial, during which the escape platform was removed from the tank and the swimming paths were recorded over 60 s while mice searched for the missing platform
DCE was intranasally administered (Ullio-Gamboa G, et al. Dodecyl creatine ester-loaded nanoemulsion as a promising therapy for creatine transporter deficiency. Nanomedicine 14, 1579-1593 (2019)) to Slc6a8^−/y for 30 days, once a day at 4 mg/g of body weight, whilst the control groups were wild-type (WT) and vehicle-treated (Veh) Slc6a8^−/y mice, at N=8/group. Cognitive performance was evaluated using the object recognition test, the Y-maze, and the Morris water maze (MWM). […]

[2] = test system: CrT KO mice; experiment: Object recognition test (ORT) in DCE-treated CrT KO mice
Experimental: as §1
The day before testing, mice were familiarized with the empty arena for 10 min. The object recognition test (ORT), which is based on the spontaneous tendency of rodents to spend more time exploring a novel object than a familiar one, measures short- and long-term memory and consists of a sample and a testing phase. During the sample phase, mice were placed in the arena with two identical objects placed in diagonally opposite corners of the arena (about 6 cm from the walls) for 10 min. The test phase was 24 hours after the sample phase. Mice were returned to the arena with an identical copy of one of the familiar objects and a new object placed in the same position. The mice explored the objects for 5 min.
(§2) DCE was intranasally administered (Ullio-Gamboa G, et al. Dodecyl creatine ester-loaded nanoemulsion as a promising therapy for creatine transporter deficiency. Nanomedicine 14, 1579-1593 (2019)) to Slc6a8^−/y for 30 days, once a day at 4 mg/g of body weight, whilst the control groups were wild-type (WT) and vehicle-treated (Veh) Slc6a8^−/y mice, at N=8/group. Cognitive performance was evaluated using the object recognition test, the Y-maze, and the Morris water maze (MWM). Then, proteomics was performed on four different brain regions: cortex, hippocampus, cerebellum and brainstem; and the key protein abundances were correlated with behavioral performance, identifying several mechanistic pathways.

[3] = test system: CrT KO mice; experiment: Western blotting of dissected brain tissue after DCE treatment
Experimental: Western blotting was used to detect the abundance of PLCB1 and the two inhibitors of NFkB, IKBα and IKBβ, in the dissected brain tissue. Briefly, brain tissue was homogenized in freshly prepared lysis buffer containing 20 mM Trizma-Base, 150 mM NaCl, pH 7.4 (Sigma-Aldrich, Saint-Quentin Fallavier, France) and supplemented with 1% Triton X-100, 4% of complete Protease Inhibitor Cocktail and 20% of a mix of anti-phosphatase inhibitors using a Precellys Evolution tissue homogenizer. The samples were then centrifuged first at 2500×g (15 min) and then at 10 000×g (20 min) on homogenates to produce lysate for electrophoresis. Proteins (10 to 20 μg) and protein standard in Laemmli buffer were loaded on 4%-15% CRITERION TGX STAIN-FREE protein gel in running buffer TGS 1×(all from Bio-Rad, Marnes-la-Coquette, France) and transferred to a 0.2 μm PVDF membrane with the Trans-Blot Turbo RTA Midi Transfer Kit (Bio-Rad, Marnes-la-Coquette, France). Membranes were blocked for 30 min in 5% low-fat milk in TBS-Tween 20 0.1% at room temperature. Blots were probed with specific primary antibodies overnight at 4° C. and detected by horseradish peroxidase secondary antibodies diluted 1:5 000 or 1:50 000 in 5% low-fat milk in TBS-Tween 20 0.1% at room temperature. For protein detection, membranes were exposed to the ECL prime Western blotting system (Amersham, UK) or Clarity western ECL substrate in a chemidoc touch imaging system for a measurable exposure time (Bio-Rad, Marnes-la-Coquette, France) and quantified with Image Lab Software (Bio-Rad, Marnes-la-Coquette, France). The following antibodies and dilutions were used: anti-PLCB1 (1/1000, Abcam, ab182359), anti-IKBα (1/500, Cell Signaling Technology, 4812S), anti-IKBβ (1/500, Cell Signaling Technology, 15519S), anti-PSD95 (1/2000, Merck, MABN68), and anti-tubulin (1/2000, Sigma-Aldrich, T6199), anti-KIF1A (1/1000, Abcam, ab180153).
as §2

[4] = test system: CrT KO mice; experiment: Y maze spontaneous alternation in DCE-treated CrT KO mice
Experimental: as §1
Mice were placed in the center of the maze and movement was recorded for 8 min. The number of arm entries (all four limbs within the arm) and the number of triads (three arm entries) were video-recorded in order to calculate the alternation percentage defined as the number of triads divided by the number of possible alternations (total arm entries minus 2) and then multiplying by 100.
as §2

[5] = test system: CrT KO mice; experiment: Label-free shotgun proteomics of brain regions after DCE treatment
Experimental: Total protein (15 μg) was extracted from different brain regions and mixed with lithium dodecyl sulfate lysis buffer (Invitrogen) and incubated at 99° C. for 5 min, and then separated by a short electrophoresis migration (5 min) at 200 V on NuPAGE 4-12% Bis-Tris gel with MES/SDS 1× (Invitrogen) as running buffer. Gels were stained with SimplyBlue SafeStain (Thermo) for 5 min followed by an overnight wash in water with gentle agitation. The polyacrylamide band containing the whole proteome from each sample was excised and treated as recommended (Hartmann E M, Armengaud J. N-terminomics and proteogenomics, getting off to a good start. Proteomics 14, 2637-2646 (2014)). Proteins were in-gel proteolyzed with trypsin gold (Promega) in the presence of 0.01% of Protease Max surfactant (Promega) at 50° C. for 60 min. From the resulting peptide fraction (50 μL), a volume of 1 μL corresponding to approximately 300 ng of peptides was analyzed by liquid chromatography-tandem mass spectrometry (LC-MS/MS) using an Ultimate 3000 nano-LC system coupled to a Q-Exactive HF mass spectrometer (Thermo Scientific) operated as described previously (Hartmann E M, Armengaud J. N-terminomics and proteogenomics, getting off to a good start. Proteomics 14, 2637-2646 (2014)). Peptides were loaded on a reverse-phase PepMap 100 C18 μ-precolumn (5 μm, 100 Å, 300 μm i.d.×5 mm, Thermo Fisher), and then resolved on a nanoscale PepMap 100 C18 nanoLC column (3 μm, 100 Å, 75 μm i.d.×50 cm, Thermo Fisher) at a flow rate of 0.2 μL·min^−1 using a 90-min gradient (4% B for 0 to 3 min, 4-25% B from 3 to 78 min and 25-40% B from 78 to 93 min) with mobile phase A corresponding to 0.1% HCOOH/100% H2O and mobile phase B corresponding to 0.1% HCOOH/80% CH3CN/20% H2O). The mass spectrometer was operated in Top20 mode, with a scan range of MS acquisition from 350 to 1800 m/z and selection and fragmentation using a 10 s dynamic exclusion time for the 20 most abundant precursor ions. Only ion precursors with a 2+ or 3+ charge were selected for High-energy collisional dissociation (HCD) fragmentation performed at a normalized collision energy of 27 eV.
MS/MS spectra were assigned using the Mascot Daemon software version 2.6.1 (Matrix Science) and the Mus musculus SwissProt database comprising 17,096 protein sequences. Peptide tolerance, MS/MS fragment tolerance, and the maximum of missed cleavages were set at 5 ppm, 0.02 D and 2, respectively. Carbamidomethylation of cysteine was considered as fixed modification. Oxidation of methionine was taken into account as variable modification. Peptides identified at a p-value≤0.05 in homology threshold mode and proteins identified with at least two distinct peptides were selected (false discovery rate below 1%).
In-house script was constructed, using R programming language, to identify the differentially expressed proteins between the […] four different regions of the brain: cortex, cerebellum, hippocampus and brainstem. Initially, the proteomics data were normalized using the Variance Stabilizing Normalization (Motakis E S, Nason G P, Fryzlewicz P, Rutter G A. Variance stabilization and normalization for one-color microarray data using a data-driven multiscale approach. Bioinformatics 22, 2547-2553 (2006)). Proteins with at least 10 MS/MS spectra across all conditions were retained. Unsupervised variation filter was then applied to the proteomics data (Hamoudi R A, et al. Differential expression of NF-kappaB target genes in MALT lymphoma with and without chromosome translocation: insights into molecular mechanism. Leukemia 24, 1487-1497 (2010)) where any 8 samples with MS/MS detected protein were included. […]

CCCCCCCCCCCCOC(=O)CN(C)C(=N)N [DCE, dodecyl creatine ester]
memory abilities in MWM [1]: No positive effects | time observing the novel object, DCE-treated vs vehicle-treated CrT KO mice ([2]; ORT 24 h, DCE intranasal once a day 4 mg/g body weight, 30 days, N=8/group, one-way ANOVA p<0.01, Tukey p<0.05): more time | median time (novel object) of DCE-treated group as % of the WT median value ([2]; ORT, DCE intranasal 4 mg/g once a day): 96% | observation time of novel object compared with WT mice ([2]; ORT, DCE intranasal 4 mg/g once a day, p=0.406): no difference | object discrimination index / percent time with the novel object (FIG. 2A, 2B) ([2]; ORT, WT and DCE-treated, but not vehicle-treated KO mice): preference for the novel object | PLCB1 protein abundance by Western blot ([3]; brain cortex, DCE-treated CrT KO mice, p=0.0004): significant increase; also recorded: significantly increased | IκBα protein level by Western blot ([3]; brain cortex, DCE-treated CrT KO mice, p=0.008): reconstituted; also recorded: promotes | postsynaptic density protein PSD95 by Western blot ([3]; brain cortex, p=0.0096): significantly upregulated | KIF1A by Western blot (overexpressed in vehicle CrT KO mice) ([3]; cerebellum): rescued this overexpression | PLCB1 protein abundance by Western blot ([3]; cerebellum, DCE-treated CrT KO mice): significantly increased | KIF1A by Western blot (overexpressed in vehicle CrT KO mice) ([3]; cortex): rescued this overexpression | Pro-BDNF/BDNF level by Western blot ([3]; cortex, p=0.0043): higher | KIF1A by Western blot (overexpressed in vehicle CrT KO mice) ([3]; hippocampus): rescued this overexpression | PLCB1 protein abundance by Western blot ([3]; hippocampus, DCE-treated CrT KO mice): significantly increased | spontaneous alternation performance in Y-maze vs vehicle CrT KO mice ([4]; DCE intranasal 4 mg/g once a day): higher; also recorded: significantly improved | alternation rate in Y-maze vs WT mice ([4]; DCE-treated CrT KO mice, P=0.058): did not differ | median alternation rate in Y-maze ([4]; DCE-treated CrT KO mice, vehicle 48%, WT 62%, P=0.058 vs WT): 86% | presynaptic IgSF8 protein abundance ([5]; brain cortex): significantly upregulated | ANK1 abundance (downregulated in vehicle CrT KO mice), effect of DCE treatment ([5]; cerebellum): significantly rescued | ANXA5 abundance (downregulated in vehicle CrT KO mice), effect of DCE treatment ([5]; cerebellum): significantly rescued | FABP7 abundance (upregulated in CrT KO mice), DCE-treated CrT KO vs WT ([5]; cerebellum): unchanged | LMNB1 abundance (upregulated in CrT KO mice), DCE-treated CrT KO vs WT ([5]; cerebellum): unchanged | MeCP2 abundance (downregulated in vehicle CrT KO mice), effect of DCE treatment ([5]; cerebellum): significantly rescued | PURB abundance (upregulated in CrT KO mice), DCE-treated CrT KO vs WT ([5]; cerebellum): unchanged | DCLK1 abundance (upregulated in CrT KO mice), DCE-treated CrT KO vs WT ([5]; cortex): unchanged | NCAM1 abundance (upregulated in CrT KO mice), DCE-treated CrT KO vs WT ([5]; cortex): unchanged | PI4KA abundance (upregulated in CrT KO mice), DCE-treated CrT KO vs WT ([5]; cortex): unchanged | PLCB1 abundance (downregulated in vehicle CrT KO mice), effect of DCE treatment ([5]; cortex): significantly rescued | PURB abundance (upregulated in CrT KO mice), DCE-treated CrT KO vs WT ([5]; cortex): unchanged | IGSF8 abundance (downregulated in vehicle CrT KO mice), effect of DCE treatment ([5]; hippocampus): significantly rescued | KIF1A abundance (upregulated in CrT KO mice), DCE-treated CrT KO vs WT ([5]; hippocampus): unchanged | L1CAM abundance (upregulated in CrT KO mice), DCE-treated CrT KO vs WT ([5]; hippocampus): unchanged | NCAM1 abundance (upregulated in CrT KO mice), DCE-treated CrT KO vs WT ([5]; hippocampus): unchanged
